Results published in patent publication US20100324067A1, “TETRACYCLIC DIPYRANO-COUMARIN COMPOUNDS WITH ANTI-HIV AND ANTI-MYCOBACTERIUM TUBERCULOSIS ACTIVITIES” (priority 2007, published 2010).
Values after ≈ are worked out from the molar mass of the structure shown. Where two headings read alike, the source gives them in different places.

Legend:
[1] = test system: Mycobacterium tuberculosis H37Rv (ATCC 27294); test: Microplate Alamar Blue Assay (MABA) in BACTEC 12B medium (TAACF screen); type: cell-based; conditions: for IC50: read-out: IC50
[2] = read-out: anti-TB active compound (MIC90 less than 10 μg/mL), classification

| SMILES | melting point | IC50 ([1]; MABA, H37Rv) [µg/mL] | MIC90 ([1]; MABA, H37Rv, read-out: MIC90) [µg/mL] | other results |
| --- | --- | --- | --- | --- |
| CCCc1cc(=O)oc2c3c(c4c(c12)OC(C)(C)C=C4)OC(=O)CC3 | 132 to 135 °C |  |  |  |
| CCCc1cc(=S)oc2c3c(c4c(c12)OC(C)(C)C=C4)OC(C)CC3=O (centres unmarked) | 139 to 141 °C |  |  |  |
| CCCCC1C=Cc2c3c(c4oc(=O)c(F)c(CCC)c4c2O1)C(=O)CC(C)O3 (centres unmarked) | 119 to 121 °C |  |  |  |
| CCCCC1C=Cc2c3c(c4oc(=O)cc(CCC)c4c2O1)C(=O)CC(C)O3 (centres unmarked) | 138 to 139 °C |  |  |  |
| CCCc1c(Cl)c(=O)oc2c3c(c4c(c12)OC(CCC)C=C4)OC(C)CC3=O (centres unmarked) | 140 to 142 °C |  |  |  |
| CC1CC(=O)c2c(c3c(c4c(CCl)cc(=O)oc24)OC(C)(C)C=C3)O1 (centres unmarked) | 132 to 134 °C |  |  |  |
| CCCc1cc(=O)oc2c3c(c4c(c12)OC(C)(C)C=C4)OC(CN)CC3=O (centres unmarked) | > 220 °C (dec.) |  |  |  |
| CCCc1cc(=O)oc2c3c(c4c(c12)OC(C)(C)C=C4)OC(CNS(=O)(=O)c1ccc(F)cc1)CC3=O (centres unmarked) | 129 to 131 °C |  |  |  |
| CCCc1cc(=O)oc2c3c(c4c(c12)OC(C)(C)C=C4)OC(CNS(=O)(=O)c1ccc(OC)cc1)CC3=O (centres unmarked) | 108 to 109 °C |  |  |  |
| CCCc1cc(=O)oc2c3c(c4c(c12)OC(C)(C)C=C4)OC(CN1CCCC1)CC3=O (centres unmarked) | 148 to 149 °C |  |  |  |
| CCCc1cc(=O)oc2c3c(c4c(c12)OC(C)(C)C=C4)OC(CN1CCCCC1)CC3=O (centres unmarked) | 154 to 155 °C |  |  |  |
| CCCc1cc(=O)oc2c(-c3cccn3C(C)C)c(O)c3c(c12)OC(C)(C)C=C3 | 161 to 162 °C |  |  |  |
| CCCc1cc(=O)oc2c(-c3cccn3Cc3ccco3)c(O)c3c(c12)OC(C)(C)C=C3 | 157 to 159 °C |  |  |  |
| C/C=C/C1C=Cc2c3c(c4oc(=O)cc(CCC(F)(F)F)c4c2O1)C(=O)CC(C)O3 (centres unmarked) | 147 to 149 °C |  |  |  |
| CCc1cc(=O)oc2c3c(c4c(c12)OCC(C)=C4)OC(C)CC3=O (centres unmarked) | 121 to 123 °C |  |  |  |
| CCCc1cc(=O)oc2c3c(c4c(c12)OCC(C)=C4)OC(C)CC3=O (centres unmarked) | 127 to 128 °C |  |  |  |
| NCC[C@H](O)C(=O)N[C@@H]1C[C@H](N)[C@@H](O[C@H]2O[C@H](CN)[C@@H](O)[C@H](O)[C@H]2O)[C@H](O)[C@H]1O[C@H]1O[C@H](CO)[C@@H](O)[C@H](N)[C@H]1O [Amikacin, reference compound] |  |  |  | MIC50 ([1]; control compound): 0.09 µg/mL (≈ 0.154 µM); MIC90 ([1]; control compound, read-out: Avg MIC90): 0.12 µg/mL (≈ 0.205 µM) |
| Cc1cc(=O)oc2c3c(c4c(c12)OC(C)(C)C=C4)OC(C)CC3=O (centres unmarked) [Example 1, 4,6,6,10-tetramethyl-2H,6H,12H-benzo[1,2-b:3,4-b′:5,6-b″]-tripyranyl-2,12-dione] | 213 to 215 °C | 39.2 (≈ 120 µM) | 59.5 (≈ 182 µM) |  |
| Cc1c(C)c2c3c(c4c(c2oc1=O)C(=O)CC(C)O4)C=CC(C)(C)O3 (centres unmarked) [Example 2, 3,4,6,6,10-pentamethyl-2H,6H,12H-benzo[1,2-b:3,4-b′:5,6-b″]-tripyranyl-2,12-dione] | 142 to 144 °C | 20.3 (≈ 59.7 µM) | 35.2 (≈ 103 µM) |  |
| Cc1c(Cl)c(=O)oc2c3c(c4c(c12)OC(C)(C)C=C4)OC(C)CC3=O (centres unmarked) [Example 3] |  | 33.4 (≈ 92.5 µM) | > 100 |  |
| Cc1c(Cc2ccccc2)c(=O)oc2c3c(c4c(c12)OC(C)(C)C=C4)OC(C)CC3=O (centres unmarked) [Example 4] |  | 7.52 (≈ 18 µM) | > 100 |  |
| CCCc1cc(=O)oc2c1c(O)cc1occc(=O)c12 [Example 5a-13, 5-hydroxyl-4-n-propyl-benzo[2,3-f]-pyranyl-2,10-dione] |  | 46.7 (≈ 172 µM) | 53.4 (≈ 196 µM) |  |
| CCCc1cc(=O)oc2c3c(cc(O)c12)OC(CCC)CC3=O (centres unmarked) [Example 5a-14, benzo[1,2-b:3,4-b′]-dipyranyl-5-hydroxyl-4,8-di-n-propyl-2,10-dione] |  | 60.2 (≈ 190 µM) | 85.8 (≈ 271 µM) |  |
| CCCCCC1CC(=O)c2c(cc(O)c3c(CCC)cc(=O)oc23)O1 (centres unmarked) [Example 5a-15] |  | 66 (≈ 192 µM) | > 100 |  |

| SMILES | melting point | IC50 ([1]; MABA, H37Rv) [µg/mL] | MIC90 ([1]; MABA, H37Rv, read-out: MIC90) [µg/mL] | other results |
| --- | --- | --- | --- | --- |
| CCCc1cc(=O)oc2c3c(cc(O)c12)OC(c1ccccc1)CC3=O (centres unmarked) [Example 5a-16, benzo[1,2-b:3,4-b′]-dipyranyl-5-hydroxyl-8-phenyl-2,10-dione] |  | 22.5 (≈ 64.2 µM) | 25.1 (≈ 71.7 µM) |  |
| CCCc1cc(=O)oc2c3c(cc(O)c12)O[C@@H]1CCCC[C@@H]1C3=O [Example 5a-19, benzo[1,2-b:3,4-b′]-dipyranyl-5-hydroxyl-8,9-cis-cyclohexyl-2,10-dione] |  | 83.1 (≈ 253 µM) | > 100 |  |
| CCCc1c(Cl)c(=O)oc2c3c(cc(O)c12)OC(C)CC3=O (centres unmarked) [Example 5a-20, benzo[1,2-b:3,4-b′]-dipyranyl-5-hydroxyl-8-methyl-3-chloro-4-n-propyl-2,10-dione] |  | 26.9 (≈ 83.5 µM) | 42 (≈ 130 µM) |  |
| CC1CC(=O)c2c(cc(O)c3c4c(c(=O)oc23)CCCC4)O1 (centres unmarked) [Example 5a-27, benzo[1,2-b:3,4-b′]-dipyranyl-5-hydroxyl-8-methyl-3,4-cyclohexyl-2,0-dione] |  | 94.3 (≈ 314 µM) | > 100 |  |
| CCCc1c(F)c(=O)oc2c3c(cc(O)c12)OC(C)CC3=O (centres unmarked) [Example 5a-31, benzo[1,2-b:3,4-b′]-dipyranyl-5-hydroxyl-8-methyl-3-fluoro-4-n-propyl-2,10-dione] |  | 17 (≈ 55.5 µM) | 23.5 (≈ 76.6 µM) |  |
| CC1CC(=O)c2c(cc(O)c3c(CCC(F)(F)F)cc(=O)oc23)O1 (centres unmarked) [Example 5a-71, benzo[1,2-b:3,4-b′]-dipyranyl-5-hydroxyl-8-methyl-4-((3,3′,3″-trifluoro)-n-propyl)-2,10-dione] |  | 15.4 (≈ 45.1 µM) | 29.9 (≈ 87.4 µM) |  |
| CCCc1cc(=O)oc2c3c(cc(OS(=O)(=O)c4ccc(C)cc4)c12)OC(C)CC3=O (centres unmarked) [Example 5a-101, 5-(p-tolyl)sulfonyloxy-8-methyl-4-n-propyl-2H-benzo[2,3-f]dipyranyl-2,10-dione] |  | 4.2 (≈ 9.49 µM) | 6.66 (≈ 15.1 µM) | MIC90 [1, 2]: < 10 µg/mL |
| CCCc1cc(=S)oc2c3c(cc(OS(=O)(=O)c4ccc(C)cc4)c12)OC(C)CC3=O (centres unmarked) [Example 5a-102, 5-(p-tolyl)sulfonyloxy-8-methyl-4-n-propyl-2-thio-2H-benzo[2,3-f]dipyranyl-2,10-dione] |  | 5.48 (≈ 12 µM) | 6.24 (≈ 13.6 µM) | MIC90 [1, 2]: < 10 µg/mL |
| Cc1cc(=O)oc2cc3c(c(O)c12)C(=O)CC(C)O3 (centres unmarked) [Example 5b-1, benzo[1,2-b:3,4-b′]-dipyranyl-5-hydroxyl-4,8-dimethyl-2,6-dione] |  | 43.1 (≈ 165 µM) | > 100 |  |
| Cc1c(Cl)c(=O)oc2cc3c(c(O)c12)C(=O)CC(C)O3 (centres unmarked) [Example 5b-3, benzo[1,2-b:3,4-b′]-dipyranyl-5-hydroxyl-4,8-dimethyl-3-chloro-2,6-dione] |  | 90.5 (≈ 307 µM) | > 100 |  |
| CCCc1cc(=O)oc2cc3c(c(O)c12)C(=O)CC(C)O3 (centres unmarked) [Example 5b-11, benzo[1,2-b:3,4-b′]-dipyranyl-5-hydroxyl-4-n-propyl-8-methyl-2,6-dione] |  | 95.3 (≈ 330 µM) | > 100 |  |
| CCCc1cc(=O)oc2cc3c(c(O)c12)C(=O)CC(CCC)O3 (centres unmarked) [Example 5b-14, benzo[1,2-b:3,4-b′]-dipyranyl-5-hydroxyl-4,8-di-n-propyl-2,6-dione] |  | 6.59 (≈ 20.8 µM) | > 100 |  |
| CCCc1cc(=O)oc2cc3c(c(O)c12)C(=O)CC(c1ccccc1)O3 (centres unmarked) [Example 5b-16, benzo[1,2-b:3,4-b′]-dipyranyl-5-hydroxyl-8-phenyl-2,6-dione] |  | 4.31 (≈ 12.3 µM) | 5.41 (≈ 15.4 µM) | MIC90 [1, 2]: < 10 µg/mL |
| CC1CC(=O)c2c(cc3oc(=O)cc(-c4ccccc4)c3c2O)O1 (centres unmarked) [Example 5b-21, benzo[1,2-b:5,4-b′]-dipyranyl-5-hydroxyl-8-methyl-4-phenyl-2,6-dione] |  | 14.9 (≈ 46.1 µM) | 21.3 (≈ 66.1 µM) |  |
| CC1CC(=O)c2c(c3c(c4c(CN5CCNCC5)cc(=O)oc24)OC(C)(C)C=C3)O1 (centres unmarked) [Example 6, 6,6,10-trimethyl-4-piperazidinylmethylene-10,11-dihydro-6H-benzo[2,3-f:2′,3′-h]-tripyranyl-2,12-dione] | 156 to 158 °C | 52.4 (≈ 128 µM) | > 100 |  |
| O=c1oc2cc(O)cc(O)c2c2c1CCC2 [Example 6-26, 3,4-cyclopentyl-5,7-dihydroxy-coumarin] |  | 9.97 (≈ 45.7 µM) | 24.4 (≈ 112 µM) |  |
| CCCCc1cc(=O)oc2cc(O)cc(O)c12 [Example 6-36, 4-n-butyl-5,7-dihydroxy-coumarin] |  | 11.3 (≈ 48.4 µM) | 14.4 (≈ 61.6 µM) |  |
| O=c1cc(CCC(F)(F)F)c2c(O)cc(O)cc2o1 [Example 6-71, 4-(3,3′,3″-trifluoro)-n-propyl-5,7-dihydroxy-coumarin] |  | 2.53 (≈ 9.21 µM) | 4.06 (≈ 14.8 µM) | MIC90 [1, 2]: < 10 µg/mL |
| CC1CC(=O)c2c(c3c(c4c(-c5ccccc5)cc(=O)oc24)OC(C)(C)C=C3)O1 (centres unmarked) [Example 21] |  | 16.6 (≈ 42.8 µM) | > 100 |  |
| CC1CC(=O)c2c(c3c(c4c(-c5ccc(N)cc5)cc(=O)oc24)OC(C)(C)C=C3)O1 (centres unmarked) [Example 23, 6,6,10-trimethyl-4-p-aminophenyl-2H,6H,12H-benzo[1,2-b:3,4-b′:5,6-b″]-tripyranyl-2,12-dione] | 149 to 151 °C | 24.2 (≈ 60 µM) | 27.6 (≈ 68.4 µM) |  |
| CC1CC(=O)c2c(c3c(c4c(-c5cc(F)c(Cl)nc5Cl)cc(=O)oc24)OC(C)(C)C=C3)O1 (centres unmarked) [Example 25] | 158 to 160 °C | 2.86 (≈ 6 µM) | 3.9 (≈ 8.18 µM) | MIC90 [1, 2]: < 10 µg/mL |
| CC1CC(=O)c2c(c3c(c4c5c(c(=O)oc24)CCC5)OC(C)(C)C=C3)O1 (centres unmarked) [Example 26, 6,6,10-trimethyl-3,4-cyclopentyl-2H,6H,12H-benzo[1,2-b:3,4-b′:5,6-b″]-tripyranyl-2,12-dione] | 108 to 109 °C | 23.9 (≈ 67.8 µM) | 43.6 (≈ 124 µM) |  |
| CCCc1c(F)c(=O)oc2c3c(c4c(c12)OC(CCC)C=C4)OC(C)CC3=O (centres unmarked) [Example 32, 10-methyl-3-fluoro-4,6-di(-n-propyl)-2H,6H,12H-benzo[1,2-b:3,4-b′:5,6-b″]-tripyranyl-2,12-dione] | 123 to 124 °C | 78.3 (≈ 203 µM) | > 100 |  |
| CCCCc1cc(=O)oc2c3c(c4c(c12)OC(C)(C)C=C4)OC(C)CC3=O (centres unmarked) [Example 36] |  | 24.2 (≈ 65.8 µM) | 36.6 (≈ 99.3 µM) |  |
